Data taken from ChEMBL document CHEMBL3352455, “Small molecule disruptors of the glucokinase-glucokinase regulatory protein interaction: 4. Exploration of a novel binding pocket” (J Med Chem, 2014).

Legend:
Hexokinase-4 = molecular target: T1, Hexokinase-4 (Homo sapiens, UniProt P35557); assay: Inhibition of fluorescein-labeled human GK interaction with biotin-labeled human GKRP compound incubated for 20 mins prior to addition of fluorescein-labeled GK measured after 2 to 4 hrs by AlphaScreen assay
T1 sequence (P35557 whole entry): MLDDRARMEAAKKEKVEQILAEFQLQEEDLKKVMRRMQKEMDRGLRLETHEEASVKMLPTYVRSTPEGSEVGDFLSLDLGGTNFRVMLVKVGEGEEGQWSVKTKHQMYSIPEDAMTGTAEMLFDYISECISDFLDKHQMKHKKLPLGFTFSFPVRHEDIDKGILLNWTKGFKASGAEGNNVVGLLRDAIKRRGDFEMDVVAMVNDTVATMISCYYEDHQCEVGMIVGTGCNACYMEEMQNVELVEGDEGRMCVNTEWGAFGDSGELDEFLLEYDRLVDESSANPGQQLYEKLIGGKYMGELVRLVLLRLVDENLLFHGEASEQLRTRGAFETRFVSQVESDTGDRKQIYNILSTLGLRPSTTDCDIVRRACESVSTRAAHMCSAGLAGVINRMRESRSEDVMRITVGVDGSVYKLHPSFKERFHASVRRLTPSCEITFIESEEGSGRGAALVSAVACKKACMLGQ

[1] = Intrinsic clearance in human liver microsomes at 1 uM after 30 mins in presence of NADPH; format: ADME; settings: read-out: CLH
[2] = Intrinsic clearance in rat liver microsomes at 1 uM after 30 mins in presence of NADPH; format: ADME; settings: read-out: CLH
[3] = Clearance in Sprague-Dawley rat at 2 mg/kg, iv; format: ADME, organism-based; parameters: dose 2 mg/kg, route intravenous; settings: in vivo
[4] = Volume of distribution at steady state in Sprague-Dawley rat at 2 mg/kg, iv; format: ADME, organism-based; parameters: dose 2 mg/kg, route intravenous; settings: in vivo, read-out: Vdss
[5] = Mean residence time in Sprague-Dawley rat at 2 mg/kg, iv; format: ADME, organism-based; parameters: dose 2 mg/kg, route intravenous; settings: in vivo
[6] = Oral bioavailability in Sprague-Dawley rat at 10 mg/kg; format: ADME, organism-based; settings: in vivo
[7] = AUC in Sprague-Dawley rat at 10 mg/kg, po; format: ADME, organism-based; parameters: dose 10 mg/kg, route oral; settings: plasma
[8] = Fraction unbound in Sprague-Dawley rat plasma; format: ADME, cell-free
Mus musculus = assay: Antidiabetic activity in insulin-resistant db/db mouse assessed as reduction of fed blood glucose level at 10 to 100 mg/kg, po measured at 6 hrs relative to vehicle-treated control; format: functional; parameters: scale not given: the % may be the effect or the level left; settings: dose mg/kg 10-100
Cytochrome P450 3A4 = Cytochrome P450 3A4 (Homo sapiens, UniProt P08684); assay: Inhibition of CYP3A4 (unknown origin); format: ADME
Sequence of Cytochrome P450 3A4 (P08684 whole entry): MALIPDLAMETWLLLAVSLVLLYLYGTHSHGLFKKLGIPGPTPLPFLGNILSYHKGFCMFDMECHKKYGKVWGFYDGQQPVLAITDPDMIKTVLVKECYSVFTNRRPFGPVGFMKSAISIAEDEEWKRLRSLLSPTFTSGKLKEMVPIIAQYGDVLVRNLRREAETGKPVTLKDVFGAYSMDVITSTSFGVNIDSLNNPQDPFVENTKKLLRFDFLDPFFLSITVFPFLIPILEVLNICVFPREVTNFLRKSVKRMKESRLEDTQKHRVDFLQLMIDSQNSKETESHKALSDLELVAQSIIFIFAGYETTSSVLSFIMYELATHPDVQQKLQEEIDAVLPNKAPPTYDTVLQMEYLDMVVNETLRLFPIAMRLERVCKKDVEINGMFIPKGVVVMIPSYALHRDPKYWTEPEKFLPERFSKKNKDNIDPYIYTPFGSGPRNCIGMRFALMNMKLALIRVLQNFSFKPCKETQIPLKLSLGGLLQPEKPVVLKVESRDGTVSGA

Cytochrome P450 2D6 = Cytochrome P450 2D6 (Homo sapiens, UniProt P10635); assay: Inhibition of CYP2D6 (unknown origin); format: ADME
Sequence of Cytochrome P450 2D6 (P10635 whole entry): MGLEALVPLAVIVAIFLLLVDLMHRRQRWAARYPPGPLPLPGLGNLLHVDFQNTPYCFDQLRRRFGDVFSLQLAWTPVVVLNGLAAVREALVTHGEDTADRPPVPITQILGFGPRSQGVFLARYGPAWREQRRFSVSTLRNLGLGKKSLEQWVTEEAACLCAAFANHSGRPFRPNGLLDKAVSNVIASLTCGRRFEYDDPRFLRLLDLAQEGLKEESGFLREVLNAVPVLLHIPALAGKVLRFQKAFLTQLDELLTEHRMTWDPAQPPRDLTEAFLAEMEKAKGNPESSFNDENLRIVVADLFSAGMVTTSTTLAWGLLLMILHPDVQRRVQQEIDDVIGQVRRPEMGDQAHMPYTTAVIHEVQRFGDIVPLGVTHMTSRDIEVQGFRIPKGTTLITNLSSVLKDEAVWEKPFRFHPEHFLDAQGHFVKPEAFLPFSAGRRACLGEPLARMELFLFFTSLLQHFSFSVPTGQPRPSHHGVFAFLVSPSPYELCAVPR

Compound	IC50 (Hexokinase-4)	microsomal CLint at 1 µM [1]	microsomal CLint at 1 µM [2]	clearance [3]	Vd [4]	MRT [5]	bioavailability [6]	AUC [7]	fraction unbound [8]	Activity (Mus musculus)	IC50 (Cytochrome P450 3A4)	IC50 (Cytochrome P450 2D6)
Nc1ccc(S(=O)(=O)N2CCN(c3ncc(C(O)(C(F)(F)F)C(F)(F)F)cc3-c3cccnc3)CC2)cn1	0.005 µM	17 µL/min/mg	20 µL/min/mg	25 mL/min/kg	3.36 L/kg	2.18 h	43%	4.74 µM·h	0.021	25%	27 µM	27 µM
Cn1cc(-c2cc(C(O)(C(F)(F)F)C(F)(F)F)cnc2N2CCN(S(=O)(=O)c3ccc(N)nc3)CC2)cn1	0.001 µM	19 µL/min/mg	44 µL/min/mg	33.3 mL/min/kg	2.57 L/kg	1.34 h	30%	2.8 µM·h	0.011		27 µM	18 µM
